Source: patent publication US20240115550A1, “TREATMENT OF MENTAL DISORDERS” (GH Research Ireland Limited, priority 2022, published 2024)
Values joined by “and” are separate entries in the source; they are usually repeats but may differ in a detail not shown here. Identical values can stand only once.

What was measured:
human plasma protein = test: Plasma binding of 5-MIAA; format: in vitro ADME
Procedure: Binding to human plasma protein was determined. Reported are the unbound fraction (fu) for three replicates as well as the mean unbound fraction, the standard deviation and the mean % recovery (Table 8).

[1] = tested on: human hepatocytes (Hμrel HumanPool co-culture); test: Metabolic stability in Hμrel human hepatocyte co-culture; format: in vitro ADME
Procedure: The incubations were performed using 1 and 10 μM initial concentrations and sampling at 0, 1, 2, 4, 8, 24, 48, and 72 hours (h) time points. The samples were analysed using UPLC/QE-orbitrap-MS.

[2] = LC-MS/MS of 5-MeO-DMT and metabolites in breastmilk, serum and urine of a lactating PPD patient
[3] = Infant exposure estimate (DID, RID) from breast milk concentrations
[4] = Pharmacokinetics after single inhaled dose; format: in vivo, human
[5] = tested on: Salmonella typhimurium (TA98, TA100, TA1535 and TA1537); test: Bacterial mutation test, Salmonella typhimurium; format: cell-based; conditions: up to 5000 μg/plate, absence and presence of S-9
Procedure: (§1) These conditions included treatments at concentrations up to 5000 μg/plate (the maximum recommended concentration according to current regulatory guidelines), in the absence and in the presence of a rat liver metabolic activation system (S-9).

[6] = tested on: patients with postpartum depression (PPD); test: Clinical trial of inhaled 5-MeO-DMT in postpartum depression; format: in vivo, human; conditions: for MADRS response (>=50% improvement) and remission (total <=10): 6 mg then 12 mg
Procedure: The single-arm, open-label clinical trial will involve 15 adult female patients with clinically diagnosed postpartum depression (PPD).
The second dose (12 mg) will only be administered if: • a. A peak experience (total score of ≥75) has not been achieved following the 6 mg dose, and • b. The 6 mg dose was safe and well-tolerated according to the investigator, • c. Any psychoactive effects (PsE) of the prior dose have subsided, and • d. Pre-dose vital parameters and forced expiratory volume in one second (FEV1) are in normal range, or if outside of the normal range, are not clinically significant according to the investigator. • 3. Similarly, a third dose (18 mg) will only be administered if: • a. A peak experience (total score of ≥75) has not been achieved following the 12 mg dose, and • b. The 12 mg dose was safe and well-tolerated according to the investigator, and • c. Any PsE of the prior dose have subsided, and • d. Pre-dose vital parameters and forced expiratory volume in one second (FEV1) are in normal range, or if outside of the normal range, are not clinically significant according to the investigator.
The patients will be assessed for a peak psychedelic experience (based on a patient-scored visual analogue scale, the PE scale), sedation, and other endpoints after dosing. Follow-up visits are planned for Day 1, and Day 7 after the dosing day.
The following criteria must be met by all patients considered for clinical trial participation: • 1. Is female and in the age range between 18 and 45 years (inclusive) at screening. • 2. Has a body mass index (BMI) in the range of 18.5 and 35 kg/m^2 (inclusive) at screening. • 3. Meets the trial criteria for PPD as assessed by a trial psychiatrist or registered psychologist: • a. Diagnosis of Major Depressive Disorder without psychotic features, confirmed by the Mini-International Neuropsychiatric Interview (MINI), with peri-partum onset that began no earlier than gestation and no later than the first 4 weeks postpartum. • b. Has a Montgomery-Åsberg Depression Rating Scale (MADRS) total score of equal to or greater than 28 at screening and pre-dose on Day 0. • 6. […] Patients must have a negative pregnancy test at screening and on the pre-test day (Day −1). • 5. Is willing to delay start of other antidepressant or anxiety medication until after the end of the trial at Day 7 and agrees to keep any psychotherapy unchanged during the trial.
A potential patient who meets any of the following key exclusion criteria will be excluded from participation in this trial: • 1. Has, based on history, psychiatric assessment, and evaluation of the MINI, a current or prior diagnosis of bipolar disorder, a manic or hypomanic episode, a psychotic disorder, Major Depressive Disorder (MDD) or other mood disorder with psychotic features, obsessive compulsive disorder, post-traumatic stress disorder (PTSD), autism spectrum disorder, borderline personality disorder, schizophrenia, delusional disorder, paranoid personality disorder, schizoaffective disorder, clinically significant intellectual disability, or any other psychiatric comorbidity that renders the patient unsuitable for the trial according to the investigator's judgment. • 2. Has one or more first or second degree relatives with a current or previously diagnosed bipolar disorder, psychotic disorder or other mood disorder (including MDD) with psychotic features. • 3. Is in the judgement of a trial psychiatrist or registered psychologist, at significant risk for suicide based on history, psychiatric assessment, and evaluation of suicidal ideation and suicidal behaviour based on the Columbia-Suicide Severity Rating Scale (C-SSRS). • 4. Has taken anti-depressive medication within 14 days or 5 half-lives (whichever is longer) prior to dosing (exception: within the last 5 weeks in the case of fluoxetine). • 5.

[7] = tested on: Escherichia coli (WP2 uvrA pKM101); test: Bacterial mutation test, Escherichia coli; format: cell-based; conditions: up to 5000 μg/plate, absence and presence of S-9
Procedure: as §1

[8] = 2.5 hours after last 5-MeO-DMT dose
[9] = female, human, breast milk, inhaled

Molecule: 5-methoxyindole acetic acid [5-MIAA]
- plasma binding (human plasma protein; from mean fraction unbound): ~50%
- Mean % Recovery (human plasma protein; human plasma): 81.4%
- unbound fraction (fu), Replicate 1 (human plasma protein; human plasma): 0.499
- unbound fraction (fu), Replicate 2 (human plasma protein; human plasma): 0.462
- unbound fraction (fu), Replicate 3 (human plasma protein; human plasma): 0.544
- Mean fu (human plasma protein; human plasma, three replicates): 0.502
- remaining abundance ([1]; after 72h with hepatocytes, 1 and 10 μM): 75-82%
- in vitro intrinsic clearance ([1]; human hepatocytes, 1 μM): 0.15 μl/min/million cells
- urine concentration, times higher than in serum ([2]; 5-MIAA at 2.5 hours): approx. 127 times
- 5-MIAA concentration in breast milk ([2]; 1 hour after last 5-MeO-DMT dose): 13945.2
- 5-MIAA concentration in breast milk [2, 8]: 13240.9
- 5-MIAA urine concentration [2, 8]: 12
- 5-MIAA concentration in breast milk ([2]; 8.5 hours after last 5-MeO-DMT dose): 359.4
- DID per kg ([3]; 5 kg infant): 0.001377 mg/kg/day
- total exposure of the infant (DID) ([3]; three feeds of 250 ml): 0.006886 mg 5-MIAA/day

Molecule: CN(C)CCc1c[nH]c2ccc(O)cc12 [bufotenine]
- detection in serum and breastmilk ([2]; any time point after 5-MeO-DMT): not detected
- Bufotenine in Breastmilk ([2]; times by row as E172): BLQ (Below limit of quantification. The lower limit of quantification is 25 pg/ml for both 5-MeO-DMT and 5-MIAA in both serum and breastmilk; it is 25 pg/ml in urine for 5-MeO-DMT and 250 pg/ml for 5-MIAA in urine.)
- Bufotenine in Serum ([2]; times by row as E172): BLQ (Below limit of quantification. The lower limit of quantification is 25 pg/ml for both 5-MeO-DMT and 5-MIAA in both serum and breastmilk; it is 25 pg/ml in urine for 5-MeO-DMT and 250 pg/ml for 5-MIAA in urine.)
- detection in human serum ([4]; after 5-MeO-DMT, in no case detected 15 minutes after administration): barely detected

Molecule: COc1ccc2[nH]cc(CCN(C)C)c2c1 [5-MeO-DMT]
- mutation induction [5]: did not induce mutation
- detection in breast milk ([2]; after 24 hours): did not detect
- concentration at 2.5 h [2, 9]: 561 µg/mL
- concentration at 8.5 h [2, 9]: 42.1 µg/mL
- Daily Infant Dosage (DID) per kg ([3]; 5 kg infant): 0.0001385 mg/kg/day
- MADRS response (>=50% improvement) and remission (total <=10) ([6]; first PPD patient): fulfilled standard criteria
- BIMF management domain, percentage improvement ([6]; first PPD patient, Day 7): 18%
- BIMF self-care domain, percentage improvement ([6]; first PPD patient, Day 7): 44%
- adverse events ([6]; first PPD patient: cramping left abdominal pain and headache, Day 0): mild, short-lasting and resolved spontaneously
- MADRS item score ([6]; first PPD patient, Day 1, as E149): 0
- BPRS item score ([6]; first PPD patient, Day 1, rows as E155): 1
- BPRS item score ([6]; first PPD patient, Day 7, rows as E155): 1
- BPRS item score ([6]; first PPD patient, Discharge, item by row: r24 Somatic Concern, r25 Anxiety, r26 Emotional withdrawal, r28 Conceptual disorganization, r30 Guilt feelings, r31 Tension, r32 Mannerisms and Posturing, r34 Grandiosity, r35 Depressive Mood, r36 Hostility, r37 Suspiciousness, r38 Hallucinatory behaviour, r40 Motor retardation, r41 Uncooperativeness, r42 Unusual Thought Content, r44 Blunted affect, r45 E): 1
- MADRS response (>=50% improvement) and remission (total <=10) ([6]; second PPD patient): fulfilled standard criteria
- adverse events ([6]; second PPD patient: vomiting Day 0, headache Day 5): mild, short-lasting and resolved spontaneously
- detectability in plasma ([4]; 3 hours after inhalation): no longer detectable
- accumulation upon repeated administration ([4]; repeated within 1 to 4 hours): No accumulation
- mutation induction [7]: did not induce mutation

Molecule: COc1ccc2[nH]cc(CCO)c2c1 [5-methoxytryptophol, 5-methoxyindole-3-ethanol]
- relative LC/MS peak area for 5-methoxytryptophol ([1]; 0 h, incubation by row: r7 1 μM Hepatocytes, r8 1 μM Stromal cells, r9 10 μM Hepatocytes, r10 10 μM Stromal cells): 100%
- relative LC/MS peak area for 5-methoxytryptophol ([1]; 1 h, as E141): 79% and 87%
- relative LC/MS peak area for 5-methoxytryptophol ([1]; 2 h, as E141): 57% and 81%
- metabolic turnover ([1]; in 24 h with hepatocytes): complete disappearance
